According to PMC11087268, “A folate inhibitor exploits metabolic differences in Pseudomonas aeruginosa for narrow-spectrum targeting” (Nature Microbiology, 2024):
“And” between values parts separate entries of the source, which are not always exact repeats. Identical values can stand only once. Like-named read-outs stand apart in the source and are kept apart here.

Tests used:
[1] = test system: PA14 nfxB (T39P) and mexS (L46F) mutants; assay: Pyocyanin production; format: cell-based, Pseudomonas aeruginosa; conditions: for Pyocyanin production (Panel E): single replicates
Procedure: […] Cell-free supernatants were […] by centrifugation, and 100 μl were added to a 96-well plate in duplicate. The integrated absorbance spectrum from 306 to 326 nm was taken in a Tecan InfiniteM200 Pro plate reader to determine pyocyanin levels in each sample. A ΔpqsA sample was used to subtract out any background values, and pyocyanin levels were normalized by the ratio of OD600 between wildtype PA14 and the mutants to account for any slight differences in growth.

[2] = test system: sheep red blood cells; assay: Haemolysis; format: cell-based; conditions: 1 h, vs Triton X-100 100% lysis
Procedure: Samples were treated at 37 °C with shaking for 1 h and then centrifuged. Supernatants were collected and absorbances were measured at 405 nm in a Tecan InfiniteM200 Pro microplate reader.

[3] = test system: P. aeruginosa clinical isolates; format: cell-based, Pseudomonas aeruginosa; conditions: for clinical isolates resistant: 77 P. aeruginosa clinical isolates (55 CDC/FDA, 22 blood), 50 μg ml^−1, growth inhibition >80% = sensitive; for % Growth: 50ug/mL
Procedure: Percent growth was calculated by dividing the OD600 of fluorofolin antibiotic-treated wells by that of vehicle-only wells.

[4] = test system: P. aeruginosa PA14; assay: Colony-forming units counting after antibiotic treatment; format: cell-based, Pseudomonas aeruginosa; conditions: 2× MIC (fluorofolin 6.2, TMP 250, polymixin B 4 μg ml^−1)
Procedure: P. aeruginosa PA14 overnight cultures were diluted 1:100 and grown to exponential phase (OD600 = 0.4–0.6). Cultures were diluted 1:10 and treated with antibiotic. At each time point, 150 μl of culture was removed, serial diluted 1:10 six times and plated onto LB agar plates. Plates were grown overnight at 37 °C, after which visible colonies were counted. C.f.u.s ml^−1 are reported from dilutions in which ~10–100 single colonies were visible.

CCCCCCCc1[nH]c2ccccc2c(=O)c1O [PQS, Pseudomonas quinolone signal]
Pyocyanin production (Panel E) ([1]; PA14, + 1 uM PQS): 15.8282 and 16.194 and 15.1165 | pyocyanin production of nfxB and mexS mutants ([1]; PQS 1 μM added at inoculation): partially rescued | Pyocyanin production (Panel E) ([1]; PqsA KO, + 1 uM PQS): 17.5069 and 16.392 and 16.1857 | Pyocyanin production (Panel E) ([1]; mexS Mutant, + 1 uM PQS): 10.0838 and 9.877 and 13.1798 | Pyocyanin production (Panel E) ([1]; nfxB mutant, + 1 uM PQS): 8.219 and 6.016 and 7.118

CC(C)c1ccc(Cn2ccc3c4c(N)nc(NC5CC5)nc4ccc32)cc1 [SCH-79797]
% Hemolysis, Mean ([2]; 0.78125 ug/mL): 0.2789% | % Hemolysis, Mean ([2]; 1.5625 ug/mL): -0.7082% | % Hemolysis, Mean ([2]; 3.125 ug/mL): -0.9423% | % Hemolysis, Mean ([2]; 6.25 ug/mL): 0.9543% | % Hemolysis, Mean ([2]; 12.5 ug/mL): 20.9447% | % Hemolysis, Mean ([2]; 25 ug/mL): 53.6334% | % Hemolysis, Mean ([2]; 50 ug/mL): 64.7041%

C[C@@H](O)[C@H]1C(=O)N2C(C(=O)O)=C(S[C@@H]3CN[C@H](C(=O)N(C)C)C3)[C@H](C)[C@H]12 [meropenem]
clinical isolates resistant [3]: 74.0% | % Growth ([3]; Isolate# 1): 113.227% | % Growth ([3]; Isolate# 2): 104.859% | % Growth ([3]; Isolate# 3): 93.4328% | % Growth ([3]; Isolate# 4): 45.5006% | % Growth ([3]; Isolate# 5): 93.4656% | % Growth ([3]; Isolate# 6): 77.5947% | % Growth ([3]; Isolate# 7): 101.901% | % Growth ([3]; Isolate# 8): 45.9194% | % Growth ([3]; Isolate# 9): 53.5808% | % Growth ([3]; Isolate# 10): 5.367% | % Growth ([3]; Isolate# 11): 99.5105% | % Growth ([3]; Isolate# 12): 98.7175% | % Growth ([3]; Isolate# 13): 37.9571% | % Growth ([3]; Isolate# 14): 104.583% | % Growth ([3]; Isolate# 15): 111.823% | % Growth ([3]; Isolate# 16): 82.8716% | % Growth ([3]; Isolate# 17): 101.338% | % Growth ([3]; Isolate# 18): 69.0131% | % Growth ([3]; Isolate# 19): 139.474% | % Growth ([3]; Isolate# 20): 102.365% | % Growth ([3]; Isolate# 21): 105.977% | % Growth ([3]; Isolate# 22): 100% | % Growth ([3]; Isolate# 23): 99.084% | % Growth ([3]; Isolate# 24): 101.66% | % Growth ([3]; Isolate# 25): 0.3832% | % Growth ([3]; Isolate# 26): 108.084% | % Growth ([3]; Isolate# 27): 90.2732% | % Growth ([3]; Isolate# 28): 50.4713% | % Growth ([3]; Isolate# 29): 81.8075% | % Growth ([3]; Isolate# 30): 25.5041% | % Growth ([3]; Isolate# 31): 2.581% | % Growth ([3]; Isolate# 32): 49.1417% | % Growth ([3]; Isolate# 33): 0% | % Growth ([3]; Isolate# 34): 7.796% | % Growth ([3]; Isolate# 35): 0.5421% | % Growth ([3]; Isolate# 36): 34.6796% | % Growth ([3]; Isolate# 37): 97.561% | % Growth ([3]; Isolate# 38): 159.815% | % Growth ([3]; Isolate# 39): 38.9532% | % Growth ([3]; Isolate# 40): 99.0807% | % Growth ([3]; Isolate# 41): 94.6179% | % Growth ([3]; Isolate# 42): 57.1194% | % Growth ([3]; Isolate# 43): 47.1218% | % Growth ([3]; Isolate# 44): 108.201% | % Growth ([3]; Isolate# 45): 95.4718% | % Growth ([3]; Isolate# 46): 98.3594% | % Growth ([3]; Isolate# 47): 114.345% | % Growth ([3]; Isolate# 48): 88.9096% | % Growth ([3]; Isolate# 49): 96.2021% | % Growth ([3]; Isolate# 50): 122.491% | % Growth ([3]; Isolate# 51): 46.991% | % Growth ([3]; Isolate# 52): 2.293% | % Growth ([3]; Isolate# 53): 3.543% | % Growth ([3]; Isolate# 54): 4.738% | % Growth ([3]; Isolate# 55): 0% | % Growth ([3]; Isolate# 56): 121.285% | % Growth ([3]; Isolate# 57): 61.1775% | % Growth ([3]; Isolate# 58): 74.7799% | % Growth ([3]; Isolate# 59): 114.529% | % Growth ([3]; Isolate# 60): 144.06% | % Growth ([3]; Isolate# 61): 63.8412% | % Growth ([3]; Isolate# 62): 95.6203% | % Growth ([3]; Isolate# 63): 0% | % Growth ([3]; Isolate# 64): 0.5899% | % Growth ([3]; Isolate# 65): 0.9518% | % Growth ([3]; Isolate# 66): 19.8024% | % Growth ([3]; Isolate# 67): 10.308% | % Growth ([3]; Isolate# 68): 0.6936% | % Growth ([3]; Isolate# 69): 5.952% | % Growth ([3]; Isolate# 70): 25.3374% | % Growth ([3]; Isolate# 71): 98.2336% | % Growth ([3]; Isolate# 72): 90.6634% | % Growth ([3]; Isolate# 73): 0% | % Growth ([3]; Isolate# 74): 128.066% | % Growth ([3]; Isolate# 75): 2.406% | % Growth ([3]; Isolate# 76): 11.0259% | % Growth ([3]; Isolate# 77): 28.4071%

gentamycin
clinical isolates resistant [3]: 35.0% | % Growth ([3]; Isolate# 1): 0.6518% | % Growth ([3]; Isolate# 2): 105.422% | % Growth ([3]; Isolate# 3): 61.3464% | % Growth ([3]; Isolate# 4): 179.172% | % Growth ([3]; Isolate# 5): 0% | % Growth ([3]; Isolate# 6): 89.7261% | % Growth ([3]; Isolate# 7): 110.349% | % Growth ([3]; Isolate# 8): 97.3307% | % Growth ([3]; Isolate# 9): 0% | % Growth ([3]; Isolate# 10): 0% | % Growth ([3]; Isolate# 11): 111.492% | % Growth ([3]; Isolate# 12): 30.6669% | % Growth ([3]; Isolate# 13): 9.611% | % Growth ([3]; Isolate# 14): 99.0331% | % Growth ([3]; Isolate# 15): 99.6274% | % Growth ([3]; Isolate# 16): 86.3373% | % Growth ([3]; Isolate# 17): 0.5763% | % Growth ([3]; Isolate# 18): 84.8111% | % Growth ([3]; Isolate# 19): 0% | % Growth ([3]; Isolate# 20): 92.394% | % Growth ([3]; Isolate# 21): 106.701% | % Growth ([3]; Isolate# 22): 98.4485% | % Growth ([3]; Isolate# 23): 0% | % Growth ([3]; Isolate# 24): 0% | % Growth ([3]; Isolate# 25): 0% | % Growth ([3]; Isolate# 26): 111.123% | % Growth ([3]; Isolate# 27): 88.2969% | % Growth ([3]; Isolate# 28): 0% | % Growth ([3]; Isolate# 29): 0% | % Growth ([3]; Isolate# 30): 1.897% | % Growth ([3]; Isolate# 31): 0% | % Growth ([3]; Isolate# 32): 104.806% | % Growth ([3]; Isolate# 33): 0% | % Growth ([3]; Isolate# 34): 0% | % Growth ([3]; Isolate# 35): 0% | % Growth ([3]; Isolate# 36): 0% | % Growth ([3]; Isolate# 37): 95.3633% | % Growth ([3]; Isolate# 38): 100.4% | % Growth ([3]; Isolate# 39): 0% | % Growth ([3]; Isolate# 40): 0% | % Growth ([3]; Isolate# 41): 0% | % Growth ([3]; Isolate# 42): 0% | % Growth ([3]; Isolate# 43): 82.8316% | % Growth ([3]; Isolate# 44): 5.792% | % Growth ([3]; Isolate# 45): 88.2389% | % Growth ([3]; Isolate# 46): 13.0256% | % Growth ([3]; Isolate# 47): 70.0551% | % Growth ([3]; Isolate# 48): 0% | % Growth ([3]; Isolate# 49): 0% | % Growth ([3]; Isolate# 50): 2.976% | % Growth ([3]; Isolate# 51): 0% | % Growth ([3]; Isolate# 52): 0% | % Growth ([3]; Isolate# 53): 0% | % Growth ([3]; Isolate# 54): 0.0248% | % Growth ([3]; Isolate# 55): 142.857% | % Growth ([3]; Isolate# 56): 0% | % Growth ([3]; Isolate# 57): 61.626% | % Growth ([3]; Isolate# 58): 0.9683% | % Growth ([3]; Isolate# 59): 34.5167% | % Growth ([3]; Isolate# 60): 0% | % Growth ([3]; Isolate# 61): 0% | % Growth ([3]; Isolate# 62): 0% | % Growth ([3]; Isolate# 63): 0% | % Growth ([3]; Isolate# 64): 0% | % Growth ([3]; Isolate# 65): 0% | % Growth ([3]; Isolate# 66): 0% | % Growth ([3]; Isolate# 67): 0% | % Growth ([3]; Isolate# 68): 0% | % Growth ([3]; Isolate# 69): 0.2922% | % Growth ([3]; Isolate# 70): 0% | % Growth ([3]; Isolate# 71): 0% | % Growth ([3]; Isolate# 72): 106.187% | % Growth ([3]; Isolate# 73): 0% | % Growth ([3]; Isolate# 74): 0% | % Growth ([3]; Isolate# 75): 0% | % Growth ([3]; Isolate# 76): 0.1836% | % Growth ([3]; Isolate# 77): 1.314%

polymixin B
PA14 CFU/mL, Mean ([4]; Time 0 h): 197000 CFU/mL | PA14 CFU/mL, Mean ([4]; Time 1 h): 81.6667 CFU/mL | PA14 CFU/mL, Mean ([4]; Time 2 h): 17.7778 CFU/mL | PA14 CFU/mL, Mean ([4]; Time 4 h): 20 CFU/mL
